Assay [1] has as its system Influenza A virus. The experiment in a line: Protection against Influenza A virus (A/California/07/2009 (H1NI)) harboring NA H275Y mutant infected in Balb/c mouse at 4.2 to 8.4 uM/kg, IV administered once daily for 7 days starting from 24 hrs prior to viral infection. Particulars: dose 4.2-8.4 µM/Kg. The class given is functional.
A short description of assay [2]: Inhibition of Influenza A virus (A/California/07/2009 (H1N1)) neuraminidase N1 H275Y mutant using MUNANA as substrate preincubated for 30 mins followed by substrate addition by fluorescence method.
For assay [3], the system named is Influenza A virus. Description: Antiviral activity against Influenza A virus (A/California/07/2009 (H1NI)) harboring NA H275Y mutant infected in dog MDCK cells assessed as reduction in virus replication incubated for 72 hrs by CCK8 assay. The format is functional, organism-based, A/California/07/2009(H1N1). (Tetrazolium assays rely on reduction of a dye to a coloured formazan, in cell work by metabolically active cells.)

Assay [4] relates to Influenza A virus. Description: Antiviral activity against Influenza A virus (A/Moscow/10/99 (H3N2)) harboring NA E119V mutant infected in dog MDCK cells assessed as reduction in virus replication incubated for 72 hrs by CCK8 assay. The format is functional, organism-based.
The nature of assay [5]: Inhibition of Influenza A virus (A/Moscow/10/99 (H3N2)) neuraminidase N2 E119V variant using MUNANA as substrate preincubated for 30 mins followed by substrate addition by fluorescence method.
The subject of assay [6] is Influenza A virus. Description: Protection against Influenza A virus (A/California/07/2009 (H1NI)) harboring NA H275Y mutant infected in Balb/c mouse at 8.4 uM/kg, IV administered once daily for 7 days starting from 24 hrs post to viral infection. The format is functional.

Activity calls are given as the source filed them. The calls are words filed in the database; no cut-off is given here.

This passage reports Activity, IC50 and EC50 results from ChEMBL document CHEMBL5034038, “Zanamivir-Cholesterol Conjugate: A Long-Acting Neuraminidase Inhibitor with Potent Efficacy against Drug-Resistant Influenza Viruses” (J Med Chem, 2021).

For `CCC(CC)O[C@@H]1C=C(C(=O)O)C[C@H](N)[C@H]1NC(C)=O` [OSELTAMIVIR CARBOXYLATE], the Activity entry is “inactive” with Influenza A virus [1] (A/California/07/2009(H1N1), time 7.0 day) and “inactive” in the assay on Influenza A virus [6] (A/Puerto Rico/8/1934(H1N1), time 7.0 day). Moreover, the half-inhibitory concentration (IC50) (commonly the concentration at which inhibition is half-maximal) in assay [2] was 938 nM; in assay [5] it was 22.4 nM. Further, the EC50 (as a rule, the concentration that produces a half-maximal response) in the assay on Influenza A virus [3] turned out to be 2610 nM; in the assay on Influenza A virus [4] (read-out: EC50), 30200 nM.
On to `CC(=O)N[C@H]1[C@H]([C@H](OC(=O)NCCOCCOCCOCc2cn(CCCCCCO[C@H]3CC[C@@]4(C)C(=CC[C@H]5[C@@H]6CC[C@H]([C@H](C)CCCC(C)C)[C@@]6(C)CC[C@@H]54)C3)nn2)[C@H](O)CO)OC(C(=O)O)=C[C@@H]1NC(=N)N`, for which the 50% inhibitory concentration (IC50) stood at 127 nM in assay [2] and 773 nM in assay [5]. Also, the values for the EC50 in the assay on Influenza A virus [3] and in the assay on Influenza A virus [4] (read-out: EC50) were 653 nM and 4810 nM, respectively.
For `CC(=O)N[C@H]1[C@H]([C@H](O)[C@H](O)CO)OC(C(=O)O)=C[C@@H]1NC(=N)N` [ZANAMIVIR], the IC50 in assay [2] amounted to 1 nM; in assay [5], 10 nM. For the same compound, the EC50 with Influenza A virus [3] was determined as 26.6 nM; in the assay on Influenza A virus [4], 5240 nM.
For the compound `CC(=O)N[C@H]1[C@H]([C@H](OC(=O)NCCOCCOCCOCCOCCOCCOCCOCCOCCOCCOCCOCCOCc2cn(CCCCCCO[C@H]3CC[C@@]4(C)C(=CC[C@H]5[C@@H]6CC[C@H]([C@H](C)CCCC(C)C)[C@@]6(C)CC[C@@H]54)C3)nn2)[C@H](O)CO)OC(C(=O)O)=C[C@@H]1NC(=N)N`, the IC50 is 573 nM in assay [2] and 8580 nM in assay [5]. Besides, the EC50 in the assay with Influenza A virus [3] was determined as 2600 nM; in the assay on Influenza A virus [4] (read-out: EC50) it was 8260 nM.
On the same counts, the results for `CCCCCCn1cc(COCCOCCOCCOCCOCCOCCNC(=O)O[C@@H]([C@@H]2OC(C(=O)O)=C[C@H](NC(=N)N)[C@H]2NC(C)=O)[C@H](O)CO)nn1` are 30.3 nM, 296 nM, 612 nM and 4730 nM.
`CC(=O)N[C@H]1[C@H]([C@H](OC(=O)NCCOCCOCCOCCOCCOCCOCc2cn(CCCCCCO[C@H]3CC[C@@]4(C)C(=CC[C@H]5[C@@H]6CC[C@H]([C@H](C)CCCC(C)C)[C@@]6(C)CC[C@@H]54)C3)nn2)[C@H](O)CO)OC(C(=O)O)=C[C@@H]1NC(=N)N`: the Activity in the assay with Influenza A virus [1] (time 7 day, at 4.2 to 8.4 µmol/kg) came to 100%; in the assay on Influenza A virus [6] (time 7 day, at 8.4 µmol/kg), 100%. In addition, the 50% inhibitory concentration (IC50) in assay [2] is 22 nM; in assay [5] it was 162 nM. Further, the concentration giving a half-maximal response (EC50) in the assay with Influenza A virus [3] is 22 nM; in the assay on Influenza A virus [4] (read-out: EC50) it was 422 nM.
